Values joined by “and” are separate entries in the source; they are usually repeats but may differ in a detail not shown here. Identical values can stand only once.
Assays:
Type in all cases: biochemical
recombinant human ALDH2 = recombinant human ALDH2 (Homo sapiens (Human), UniProt P05091); assay: ALDH2 assay (NADH formation); details: 10 nM recombinant human ALDH2, 150 uM formaldehyde, 60 min pre-incubation; read-out: IC50 hALDH2
Protocol: Standard ALDH2 reaction mixtures contained 150 uM formaldehyde, 2.5 mM NAD^+, 10 mM MgCl2 and 10 nM recombinant human ALDH2 in 50 mM Hepes buffer, pH 7.4, 0.01% Tween 20 in a final volume of 50 ul using 384-well plates. After 60 min of pre-incubation of compound with ALDH2 and formaldehyde, the reaction was started by adding NAD+ and the reaction mixture was allowed to proceed for 90 minutes. Activity of the enzyme was determined by monitoring NADH formation using Perkin-Elmer Envision Reader with excitation and emission wavelengths set at 340 and 460 nm, respectively.
(§1) Note: IC50 refers to the concentration of a compound that inhibits a reaction by 50%. In the case of competitive inhibition, IC50=2Ki when the substrate is present at the Km concentration, as per the relationship: Ki=IC50/[1+(substrate concentration/Km)].

hMAO-B = hMAO-B (Homo sapiens (Human), UniProt P27338); assay: MAO-B assay (luminogenic MAO substrate); details: microsome contained MAO-B, 16 uM substrate, 20 min pre-incubation; unit inferred
Sequence of hMAO-B (P27338 whole entry): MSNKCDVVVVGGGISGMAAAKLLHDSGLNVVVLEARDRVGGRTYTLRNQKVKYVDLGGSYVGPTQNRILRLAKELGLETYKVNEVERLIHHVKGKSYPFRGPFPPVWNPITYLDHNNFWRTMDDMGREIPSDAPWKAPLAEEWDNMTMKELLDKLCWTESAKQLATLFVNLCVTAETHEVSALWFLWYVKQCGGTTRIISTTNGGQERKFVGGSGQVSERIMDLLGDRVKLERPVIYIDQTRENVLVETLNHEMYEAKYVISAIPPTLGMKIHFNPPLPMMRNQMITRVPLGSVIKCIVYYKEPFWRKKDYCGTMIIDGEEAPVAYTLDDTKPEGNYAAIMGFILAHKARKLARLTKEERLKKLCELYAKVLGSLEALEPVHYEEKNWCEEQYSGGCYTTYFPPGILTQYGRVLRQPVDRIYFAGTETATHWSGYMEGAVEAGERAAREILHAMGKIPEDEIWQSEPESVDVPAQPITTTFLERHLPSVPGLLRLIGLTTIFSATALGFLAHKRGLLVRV
Protocol: (§2) MAO assays included luminogenic MAO substrate, reaction buffers, Luciferin Detection and the reconstitution buffer with esterase. Standard MAO reaction mixtures included microsome contained MAO-A (2 ug) or MAO-B (10 ug), 160 uM substrate for MAO-A or 16 uM substrate for MAO-B, MAO-A buffer (100 mM Hepes buffer, pH 7.5, 5% glycerol) or MAO-B buffer (100 mM Hepes, pH 7.5, 5% glycerol, 10% dimethyl sulfoxide) in a final volume of 30 ul. After 20 minutes of pre-incubation of the enzyme with compounds, the reaction was initiated by adding enzyme substrate and the reaction was allowed to proceed for 60 minutes. Reconstituted Luciferin Detection Reagent (30 ul) was then added is added to simultaneously stop the MAO reaction and convert the methyl ester derivative to luciferin and produce light. The amount of light produced is directly proportional to the activity of MAO. The mixtures were further incubated for 20 minutes and activity of the enzyme was determined using Perkin-Elmer Envision Reader.
as §1

hMAO-A = hMAO-A (Homo sapiens (Human), UniProt P21397); assay: MAO-A assay (luminogenic MAO substrate); details: microsome contained MAO-A, 160 uM substrate, 20 min pre-incubation; unit inferred
Sequence of hMAO-A (P21397 whole entry): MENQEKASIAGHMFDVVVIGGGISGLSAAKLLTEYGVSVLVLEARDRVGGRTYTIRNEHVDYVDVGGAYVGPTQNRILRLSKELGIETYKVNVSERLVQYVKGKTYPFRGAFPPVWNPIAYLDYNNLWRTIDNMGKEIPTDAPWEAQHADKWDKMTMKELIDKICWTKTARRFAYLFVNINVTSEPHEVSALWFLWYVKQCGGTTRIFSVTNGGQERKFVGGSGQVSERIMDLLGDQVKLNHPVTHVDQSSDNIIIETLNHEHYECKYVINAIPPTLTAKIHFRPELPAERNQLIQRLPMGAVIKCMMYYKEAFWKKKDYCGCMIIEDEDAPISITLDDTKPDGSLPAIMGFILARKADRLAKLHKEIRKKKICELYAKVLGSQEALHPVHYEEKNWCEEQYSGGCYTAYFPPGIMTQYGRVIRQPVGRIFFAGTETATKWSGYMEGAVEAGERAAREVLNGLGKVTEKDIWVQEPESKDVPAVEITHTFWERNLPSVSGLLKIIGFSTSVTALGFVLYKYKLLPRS
Protocol: as §2, §1

Sequence of recombinant human ALDH2 (P05091 18-517): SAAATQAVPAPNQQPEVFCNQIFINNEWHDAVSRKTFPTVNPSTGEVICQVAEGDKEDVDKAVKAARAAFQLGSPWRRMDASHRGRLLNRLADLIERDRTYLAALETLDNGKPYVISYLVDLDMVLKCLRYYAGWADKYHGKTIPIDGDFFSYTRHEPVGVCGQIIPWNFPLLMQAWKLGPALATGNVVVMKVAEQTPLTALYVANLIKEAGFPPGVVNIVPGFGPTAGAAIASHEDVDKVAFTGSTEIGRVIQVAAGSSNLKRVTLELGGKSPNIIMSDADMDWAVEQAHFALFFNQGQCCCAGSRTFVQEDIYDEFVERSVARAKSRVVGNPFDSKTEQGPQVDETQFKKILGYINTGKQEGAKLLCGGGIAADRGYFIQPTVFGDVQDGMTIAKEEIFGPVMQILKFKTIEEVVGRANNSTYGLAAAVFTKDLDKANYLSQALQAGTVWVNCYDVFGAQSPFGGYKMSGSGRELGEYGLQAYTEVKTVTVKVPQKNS

SMILES	IC50 (recombinant human ALDH2)	IC50 (hMAO-B) [µM]	IC50 (hMAO-A) [µM]
CS(=O)(=O)Nc1ccc(-c2coc3cc(C#Cc4cc[nH]c(=O)c4)ccc3c2=O)cc1 [N-(4-(4-oxo-7-((2-oxo-1,2-dihydropyridin-4-yl)ethynyl)-4H-chromen-3-yl)phenyl)methanesulfonamide]	0.009 µM	> 130	> 130
CS(=O)(=O)Nc1ccc(-c2coc3cc(C#CC4CCOCC4)ccc3c2=O)cc1 [N-(4-(4-oxo-7-((tetrahydro-2H-pyran-4-yl)ethynyl)-4H-chromen-3-yl)phenyl)methanesulfonamide]	0.043 µM	> 130	> 130
CS(=O)(=O)Nc1ccc(-c2coc3cc(C#Cc4ccccc4)ccc3c2=O)cc1 [N-(4-(4-oxo-7-(phenylethynyl)-4H-chromen-3-yl)phenyl)methanesulfonamide]	0.329 µM	> 13	> 13
CS(=O)(=O)Nc1ccc(-c2coc3cc(C#CC4CCNCC4)ccc3c2=O)cc1 [N-(4-(4-oxo-7-(piperidin-4-ylethynyl)-4H-chromen-3-yl)phenyl)methanesulfonamide]	0.174 µM	> 130	> 110
CS(=O)(=O)Nc1ccc(-c2coc3cc(C#Cc4ccccn4)ccc3c2=O)cc1 [N-(4-(4-oxo-7-(pyridin-2-ylethynyl)-4H-chromen-3-yl)phenyl)methanesulfonamide]	0.09 µM	> 130	> 130
CS(=O)(=O)Nc1ccc(-c2coc3cc(C#Cc4cccnc4)ccc3c2=O)cc1 [N-(4-(4-oxo-7-(pyridin-3-ylethynyl)-4H-chromen-3-yl)phenyl)methanesulfonamide]	0.021 µM	> 130	> 130
CS(=O)(=O)Nc1ccc(-c2coc3cc(C#Cc4cncnc4)ccc3c2=O)cc1 [N-(4-(4-oxo-7-(pyrimidin-5-ylethynyl)-4H-chromen-3-yl)phenyl)methanesulfonamide]	0.057 µM	114	> 130
CC(C)(O)C#Cc1ccc2c(=O)c(-c3ccc(NS(C)(=O)=O)cc3)coc2c1 [N-(4-(7-(3-hydroxy-3-methylbut-1-ynyl)-4-oxo-4H-chromen-3-yl)phenyl)methanesulfonamide]	2.18 µM	> 91	> 91
COCC#Cc1ccc2c(=O)c(-c3ccc(NS(=O)(=O)C4CC4)cc3)coc2c1 [N-(4-(7-(3-methoxyprop-1-ynyl)-4-oxo-4H-chromen-3-yl)phenyl)cyclopropanesulfonamide]	0.096 µM	> 130	> 130
COCC#Cc1ccc2c(=O)c(-c3ccc(NS(C)(=O)=O)cc3)coc2c1 [N-(4-(7-(3-methoxyprop-1-ynyl)-4-oxo-4H-chromen-3-yl)phenyl)methanesulfonamide]	0.047 µM	> 130	> 130
Cc1ncc(C#Cc2ccc3c(=O)c(-c4ccc(NS(C)(=O)=O)cc4)coc3c2)n1C [N-(4-(7-((1,2-dimethyl-1H-imidazol-5-yl)ethynyl)-4-oxo-4H-chromen-3-yl)phenyl)methanesulfonamide]	0.015 µM	> 130	> 130
CC1(C(=O)N2CC(C#Cc3ccc4c(=O)c(-c5ccc(NS(C)(=O)=O)cc5)coc4c3)C2)CC1 [N-(4-(7-((1-(1-methylcyclopropanecarbonyl)-azetidin-3-yl)ethynyl)-4-oxo-4H-chromen-3-yl)phenyl)methanesulfonamide]	0.006 µM	> 130	> 130
CN1CCC(C(=O)N2CC(C#Cc3ccc4c(=O)c(-c5ccc(NS(C)(=O)=O)cc5)coc4c3)C2)CC1 [N-(4-(7-((1-(1-methylpiperidine-4-carbonyl)azetidin-3-yl)ethynyl)-4-oxo-4H-chromen-3-yl)phenyl)methanesulfonamide]	0.035 µM	> 130	> 130
CS(=O)(=O)Nc1ccc(-c2coc3cc(C#CC4CN(C(=O)C5CC5(F)F)C4)ccc3c2=O)cc1 (stereo not drawn) [N-(4-(7-((1-(2,2-difluorocyclopropane-carbonyl)azetidin-3-yl)ethynyl)-4-oxo-4H-chromen-3-yl)phenyl)methanesulfonamide]	0.005 µM	> 130	> 130
CC(C)(O)C(=O)N1CC(C#Cc2ccc3c(=O)c(-c4ccc(NS(C)(=O)=O)cc4)coc3c2)C1 [N-(4-(7-((1-(2-hydroxy-2-methylpropanoyl)-azetidin-3-yl)ethynyl)-4-oxo-4H-chromen-3-yl)phenyl)methanesulfonamide]	0.016 µM	> 130	> 130
CS(=O)(=O)Nc1ccc(-c2coc3cc(C#CC4CN(C(=O)CO)C4)ccc3c2=O)cc1 [N-(4-(7-((1-(2-hydroxyacetyl)azetidin-3-yl)ethynyl)-4-oxo-4H-chromen-3-yl)phenyl)methanesulfonamide]	0.015 µM	> 130	> 130
CC(O)C(=O)N1CC(C#Cc2ccc3c(=O)c(-c4ccc(NS(C)(=O)=O)cc4)coc3c2)C1 (stereo not drawn) [N-(4-(7-((1-(2-hydroxypropanoyl)azetidin-3-yl)ethynyl)-4-oxo-4H-chromen-3-yl)phenyl)methanesulfonamide]	0.015 µM	> 130	> 130
CS(=O)(=O)Nc1ccc(-c2coc3cc(C#CC4CN(C(=O)C5CC(F)(F)C5)C4)ccc3c2=O)cc1 [N-(4-(7-((1-(3,3-difluorocyclobutanecarbonyl)azetidin-3-yl)ethynyl)-4-oxo-4H-chromen-3-yl)phenyl)methanesulfonamide]	0.006 µM	> 130	> 130
CN(C)CCC(=O)N1CC(C#Cc2ccc3c(=O)c(-c4ccc(NS(C)(=O)=O)cc4)coc3c2)C1 [N-(4-(7-((1-(3-(dimethylamino)propanoyl)azetidin-3-yl)ethynyl)-4-oxo-4H-chromen-3-yl)phenyl)methanesulfonamide]	0.064 µM	> 130	46.9
CC1(O)CC(C(=O)N2CC(C#Cc3ccc4c(=O)c(-c5ccc(NS(C)(=O)=O)cc5)coc4c3)C2)C1 (stereo not drawn) [N-(4-(7-((1-(3-hydroxy-3-methylcyclobutane-carbonyl)azetidin-3-yl)ethynyl)-4-oxo-4H-chromen-3-yl)phenyl)methanesulfonamide]	0.005 µM	> 130	> 130
COCCC(=O)N1CC(C#Cc2ccc3c(=O)c(-c4ccc(NS(C)(=O)=O)cc4)coc3c2)C1 [N-(4-(7-((1-(3-methoxypropanoyl)azetidin-3-yl)ethynyl)-4-oxo-4H-chromen-3-yl)phenyl)methanesulfonamide]	0.008 µM	> 130	> 130
CC1(C(=O)N2CC(C#Cc3ccc4c(=O)c(-c5ccc(NS(C)(=O)=O)cc5)coc4c3)C2)COC1 [N-(4-(7-((1-(3-methyloxetane-3-carbonyl)azetidin-3-yl)ethynyl)-4-oxo-4H-chromen-3-yl)phenyl)methanesulfonamide]	0.006 µM	> 130	> 130
CS(=O)(=O)Nc1ccc(-c2coc3cc(C#CC4CN(C(=O)C5CCC5)C4)ccc3c2=O)cc1 [N-(4-(7-((1-(cyclobutanecarbonyl)azetidin-3-yl)ethynyl)-4-oxo-4H-chromen-3-yl)phenyl)methanesulfonamide]	0.004 µM	> 130	> 130
CS(=O)(=O)Nc1ccc(-c2coc3cc(C#CC4CCN(C(=O)C5CC5)CC4)ccc3c2=O)cc1 [N-(4-(7-((1-(cyclopropanecarbonyl)piperidin-4-yl)ethynyl)-4-oxo-4H-chromen-3-yl)phenyl)methanesulfonamide]	0.0065 µM	> 130	> 130
CS(=O)(=O)Nc1ccc(-c2coc3cc(C#CC4(N)CCCCC4)ccc3c2=O)cc1 [N-(4-(7-((1-aminocyclohexyl)ethynyl)-4-oxo-4H-chromen-3-yl)phenyl)methanesulfonamide]	0.528 µM	> 130	> 130
CS(=O)(=O)Nc1ccc(-c2coc3cc(C#CC4(O)CCCCC4)ccc3c2=O)cc1 [N-(4-(7-((1-hydroxycyclohexyl)ethynyl)-4-oxo-4H-chromen-3-yl)phenyl)methanesulfonamide]	1.71 µM	> 130	> 130
CS(=O)(=O)Nc1ccc(-c2coc3cc(C#CC4(O)CCCC4)ccc3c2=O)cc1 [N-(4-(7-((1-hydroxycyclopentyl)ethynyl)-4-oxo-4H-chromen-3-yl)phenyl)methanesulfonamide]	0.386 µM and 0.156 µM	> 130	> 130
CC(C)CN1CC(C#Cc2ccc3c(=O)c(-c4ccc(NS(C)(=O)=O)cc4)coc3c2)C1 [N-(4-(7-((1-isobutylazetidin-3-yl)ethynyl)-4-oxo-4H-chromen-3-yl)phenyl)methanesulfonamide]	0.109 µM	> 130	> 130
